ChEMBL document CHEMBL3271977, “Stereospecific interaction of the quaternized opiate, N-methyllevorphanol, with opiate receptors” (J Med Chem, 1976)
Activity calls are given as the source filed them. No cut-off for these calls is given here.

Assays:
[1] = Displacement of [3H]etorphine from opioid receptor in guinea pig brain homogenate by scintillation counting analysis; format: tissue-based, Cavia porcellus
[2] = system: Ileum; assay: Inhibition of electrically-induced contraction of guinea pig ileum longitudinal muscle relative to levorphanol; format: functional, Cavia porcellus
[3] = system: Ileum; assay: Inhibition of electrically-induced contraction of guinea pig ileum longitudinal muscle with myentric plexus; format: functional, tissue-based; conditions: Cavia porcellus
[4] = system: Ileum; assay: Reduction in response of guinea pig ileum longitudinal muscle to exogenous acetylcholine; format: functional, tissue-based; conditions: Cavia porcellus
[5] = system: Ileum; assay: Inhibition of electrically-induced contraction of guinea pig ileum longitudinal muscle with myentric plexus in presence of naloxone; format: functional, tissue-based; conditions: Cavia porcellus
[6] = system: Ileum; assay: Stimulation of guinea pig ileum longitudinal muscle contraction relative to levorphanol; format: functional, Cavia porcellus
[7] = system: Ileum; assay: Inhibition of electrically-induced contraction of guinea pig ileum longitudinal muscle with myentric plexus up to 10^-5 M; format: functional, tissue-based; conditions: Cavia porcellus
[8] = system: Ileum; assay: Inhibition of electrically-induced contraction of guinea pig ileum longitudinal muscle with myentric plexus at 4 X 10^-5 M; format: functional, tissue-based; conditions: Cavia porcellus

Row | Compound | IC50 [1] [nM] | fold change (FC) [2] | IC50 [3] [nM] | inhibition [3] | inhibition [4] | inhibition [5] | fold change (FC) [6] | inhibition [7] | inhibition [8]
1 | C[N+]1(C)CC[C@]23CCCC[C@H]2[C@H]1Cc1ccc(O)cc13.[I-] | 520 | 0.032 | 610 | Dose-dependent effect | inactive | inactive | 0.068 | – | –
2 | CN1CC[C@]23CCCC[C@H]2[C@H]1Cc1ccc(O)cc13 [LEVORPHANOL] | 8 | – | – | – | – | – | – | – | –
3 | C[N+]1(C)CC[C@@]23CCCC[C@@H]2[C@@H]1Cc1ccc(O)cc13 | – | – | – | – | – | – | – | inactive | Active
